Read-outs that look alike come from different tables or passages of the source.
What was measured:
P-glycoprotein (Pgp) = P-glycoprotein (Pgp) (Homo sapiens, UniProt P08183); assay: Rhodamine 123 efflux inhibition assay in CCRFvcr1000 cells; assay type: cell-based
[1] = target: P-glycoprotein (Pgp) at the blood-brain barrier (Mus musculus, UniProt P21447); conditions: FVB wild-type mice; cited from earlier work
[2] = tested on: P-glycoprotein (Pgp) at the blood-brain barrier; conditions: Mdr1a/b(-/-) mice; cited from earlier work
EMT6Ar1.0 tumors = conditions: murine tumor model; cited from earlier work

P-glycoprotein (Pgp), sequence (P08183 whole entry): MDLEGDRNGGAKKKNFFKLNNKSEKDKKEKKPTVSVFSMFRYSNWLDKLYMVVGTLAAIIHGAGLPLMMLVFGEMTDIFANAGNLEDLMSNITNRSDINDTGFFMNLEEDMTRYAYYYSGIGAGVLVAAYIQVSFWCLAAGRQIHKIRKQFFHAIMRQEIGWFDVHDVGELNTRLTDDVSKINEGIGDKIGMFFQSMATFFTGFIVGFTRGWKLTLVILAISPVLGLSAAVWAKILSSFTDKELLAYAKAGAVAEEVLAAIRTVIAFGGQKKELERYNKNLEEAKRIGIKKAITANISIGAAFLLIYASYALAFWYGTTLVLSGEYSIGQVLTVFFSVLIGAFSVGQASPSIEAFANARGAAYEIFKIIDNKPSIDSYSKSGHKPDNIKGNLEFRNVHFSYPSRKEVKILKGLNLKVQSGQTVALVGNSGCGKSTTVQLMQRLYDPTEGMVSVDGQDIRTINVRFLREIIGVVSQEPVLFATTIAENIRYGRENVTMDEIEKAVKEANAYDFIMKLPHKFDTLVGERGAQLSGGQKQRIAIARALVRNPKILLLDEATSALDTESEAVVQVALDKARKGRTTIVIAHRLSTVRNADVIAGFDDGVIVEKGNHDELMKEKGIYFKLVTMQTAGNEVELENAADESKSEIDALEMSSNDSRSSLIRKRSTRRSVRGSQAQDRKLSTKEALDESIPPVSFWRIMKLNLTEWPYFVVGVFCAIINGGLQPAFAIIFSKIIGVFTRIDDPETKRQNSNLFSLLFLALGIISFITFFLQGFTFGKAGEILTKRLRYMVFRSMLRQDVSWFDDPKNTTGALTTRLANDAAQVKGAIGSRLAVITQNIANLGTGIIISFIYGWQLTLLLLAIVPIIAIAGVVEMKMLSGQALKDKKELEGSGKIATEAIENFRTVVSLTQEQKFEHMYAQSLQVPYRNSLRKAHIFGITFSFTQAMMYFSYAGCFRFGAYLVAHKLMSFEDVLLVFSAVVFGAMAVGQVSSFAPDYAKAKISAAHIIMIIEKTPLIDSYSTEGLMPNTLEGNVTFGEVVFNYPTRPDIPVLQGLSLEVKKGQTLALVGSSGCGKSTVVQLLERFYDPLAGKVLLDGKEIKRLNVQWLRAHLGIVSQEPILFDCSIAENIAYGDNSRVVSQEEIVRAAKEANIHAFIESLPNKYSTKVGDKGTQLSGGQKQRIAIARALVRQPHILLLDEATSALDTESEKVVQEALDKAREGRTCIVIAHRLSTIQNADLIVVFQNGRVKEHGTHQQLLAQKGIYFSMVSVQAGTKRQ
P-glycoprotein (Pgp) at the blood-brain barrier (Mus musculus, UniProt P21447), sequence (P21447 whole entry): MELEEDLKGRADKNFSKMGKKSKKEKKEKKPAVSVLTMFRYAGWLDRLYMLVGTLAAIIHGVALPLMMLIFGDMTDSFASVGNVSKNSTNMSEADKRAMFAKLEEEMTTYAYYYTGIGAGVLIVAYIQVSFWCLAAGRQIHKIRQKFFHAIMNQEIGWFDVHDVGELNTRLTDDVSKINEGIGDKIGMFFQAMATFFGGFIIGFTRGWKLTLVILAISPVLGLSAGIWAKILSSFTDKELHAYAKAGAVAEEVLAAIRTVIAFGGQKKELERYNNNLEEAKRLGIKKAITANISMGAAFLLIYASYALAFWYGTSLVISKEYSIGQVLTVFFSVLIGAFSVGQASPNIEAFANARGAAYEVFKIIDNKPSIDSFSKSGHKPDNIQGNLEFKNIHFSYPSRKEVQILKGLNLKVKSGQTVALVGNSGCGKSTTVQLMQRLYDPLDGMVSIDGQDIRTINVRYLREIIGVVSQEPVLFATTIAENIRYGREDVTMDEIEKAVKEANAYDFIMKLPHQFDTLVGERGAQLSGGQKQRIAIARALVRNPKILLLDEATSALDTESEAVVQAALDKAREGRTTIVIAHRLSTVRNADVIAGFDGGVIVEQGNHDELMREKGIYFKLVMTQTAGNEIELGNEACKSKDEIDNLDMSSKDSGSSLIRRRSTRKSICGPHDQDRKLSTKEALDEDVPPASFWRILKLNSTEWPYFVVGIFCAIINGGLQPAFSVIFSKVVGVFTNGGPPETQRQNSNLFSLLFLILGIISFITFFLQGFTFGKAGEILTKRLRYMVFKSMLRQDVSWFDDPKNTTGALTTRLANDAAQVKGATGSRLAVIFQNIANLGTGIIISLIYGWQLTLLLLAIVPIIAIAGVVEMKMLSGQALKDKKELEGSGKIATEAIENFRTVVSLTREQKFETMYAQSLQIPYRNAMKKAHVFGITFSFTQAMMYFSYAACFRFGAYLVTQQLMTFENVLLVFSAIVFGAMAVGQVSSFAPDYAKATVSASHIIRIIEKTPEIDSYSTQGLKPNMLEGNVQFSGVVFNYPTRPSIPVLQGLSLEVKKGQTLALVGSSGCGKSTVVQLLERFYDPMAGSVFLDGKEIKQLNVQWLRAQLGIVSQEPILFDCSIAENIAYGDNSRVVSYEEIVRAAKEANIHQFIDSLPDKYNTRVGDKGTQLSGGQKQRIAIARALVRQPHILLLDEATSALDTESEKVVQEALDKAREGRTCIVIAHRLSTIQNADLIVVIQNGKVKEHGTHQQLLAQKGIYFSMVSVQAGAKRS

COc1ccc(-c2ccc(CN3CCc4cc(OC)c(OC)cc4C3)cc2)cc1 [MC113]
IC50 (P-glycoprotein (Pgp); read-out: IC50 for inhibition of Pgp-mediated rhodamine 123 efflux, CCRFvcr1000 cells, mean±SD, at least 3 independent experiments in duplicate): 375 ± 60 nM

COc1cc2c(cc1OC)CN(CCc1ccc(NC(=O)c3cc(OC)c(OC)cc3NC(=O)c3cnc4ccccc4c3)cc1)CC2 [[^11C]tariquidar]
mean brain AUC0-60 [1]: 9 ± 1 min | mean brain AUC0-60 [2]: 17 ± 2 min | higher AUC0-60 in EMT6Ar1.0 than in EMT6 tumors (EMT6Ar1.0 tumors): approximately 60%

COc1cc2c(cc1OC)CN(CCc1ccc(NC(=O)c3cc(OC)c(OC)cc3NC(=O)c3cnc4ccccc4c3)cc1)CC2 [tariquidar]
IC50 (P-glycoprotein (Pgp)): 8.5 ± 2.5 nM

— publication PMC3690439 (Nuclear medicine and biology, 2012)
